According to ChEMBL document CHEMBL5523723, “G Protein-Coupled Estrogen Receptor-Mediated Anti-Inflammatory and Mucosal Healing Activity of a Trimethylpyridinol Analogue in Inflammatory Bowel Disease” (J Med Chem, 2024):
Active and inactive are the calls of the source. The calls are words filed in the database; no cut-off is given here.

Tests used:
[1] = Inhibition of IL6 induced adhesion of TPA treated human U-937 cells to human HT-29 cells at 1 uM pretreated with HT-29 for 1 hr followed by U-937 addition along with IL6 stimulation for 3 hrs by fluorescence based microplate reader assay relative to control; type: functional; settings: time 4 hrs
[2] = system: U-937; assay: Inhibition of TNFalpha induced adhesion of TPA treated human U-937 cells to human HT-29 cells at 1 uM pretreated with HT-29 for 1 hr followed by U-937 addition along with TNFalpha stimulation for 3 hrs by fluorescence based microplate reader assay relative to control; type: functional; settings: time 4 hrs
[3] = system: HT-29; assay: Inhibition of TNFalpha induced nuclear translocation of NF-kappaB in human HT-29 cells at 10 uM pretreated with for 3 hrs followed by TNFalpha addition by Western blotting analysis; type: functional, cell-based
[4] = system: HT-29; assay: Inhibition of TNFalpha induced nuclear translocation of p-STAT3 in human HT-29 cells at 10 uM pretreated with for 3 hrs followed by TNFalpha addition by Western blotting analysis; type: functional, cell-based
[5] = system: HT-29; assay: (§1) Mucosal healing effect in TNFalpha induced human HT-29 cells assessed as decrease in epithelial permeability by measuring reduced […] FITC-dextran 4 level at 0.1 to 10 uM pretreated for 3 hrs followed by TNFalpha addition and subsequent FD4 addition and measured after 2 hrs by fluorescence based assay; type: functional, cell-based; settings: dose 0.1-10 µM, time 5.0 hrs
[6] = system: HT-29; assay: as §1, with “at” for “at 0.1 to”, “pretreated with compound and G1” for “pretreated”; type: functional, cell-based; settings: time 5.0 hrs
[7] = system: HT-29; assay: Induction of apoptosis in human HT-29 cells assessed as viable cells at 1 uM incubated for 24 hrs by Annexin V FITC/PI staining based flow cytometry analysis ( Rvb = 99 +/- 0.1%); type: functional; settings: read-out: Activity
[8] = system: HT-29; assay: Induction of apoptosis in human HT-29 cells assessed as early apoptotic cells at 1 uM incubated for 24 hrs by Annexin V FITC/PI staining based flow cytometry analysis ( Rvb = 0%); type: functional
[9] = system: HT-29; assay: Induction of apoptosis in human HT-29 cells assessed as late apoptotic cells at 1 uM incubated for 24 hrs by Annexin V FITC/PI staining based flow cytometry analysis ( Rvb = 0.7%); type: functional
[10] = system: HT-29; assay: Induction of apoptosis in human HT-29 cells assessed as necrotic cells at 1 uM incubated for 24 hrs by Annexin V FITC/PI staining based flow cytometry analysis ( Rvb = 0.2%); type: functional
[11] = system: HT-29; assay: Induction of apoptosis in human HT-29 cells assessed as viable cells at 5 uM incubated for 24 hrs by Annexin V FITC/PI staining based flow cytometry analysis ( Rvb = 99 +/- 0.1%); type: functional; settings: read-out: Activity
[12] = system: HT-29; assay: Induction of apoptosis in human HT-29 cells assessed as early apoptotic cells at 5 uM incubated for 24 hrs by Annexin V FITC/PI staining based flow cytometry analysis ( Rvb = 0%); type: functional
[13] = system: HT-29; assay: Induction of apoptosis in human HT-29 cells assessed as late apoptotic cells at 5 uM incubated for 24 hrs by Annexin V FITC/PI staining based flow cytometry analysis ( Rvb = 0.7%); type: functional
[14] = system: HT-29; assay: Induction of apoptosis in human HT-29 cells assessed as necrotic cells at 5 uM incubated for 24 hrs by Annexin V FITC/PI staining based flow cytometry analysis ( Rvb = 0.2%); type: functional
[15] = system: HT-29; assay: Induction of apoptosis in human HT-29 cells assessed as viable cells at 10 uM incubated for 24 hrs by Annexin V FITC/PI staining based flow cytometry analysis ( Rvb = 99 +/- 0.1%); type: functional; settings: read-out: Activity
[16] = system: HT-29; assay: Induction of apoptosis in human HT-29 cells assessed as early apoptotic cells at 10 uM incubated for 24 hrs by Annexin V FITC/PI staining based flow cytometry analysis ( Rvb = 0%); type: functional
[17] = system: HT-29; assay: Induction of apoptosis in human HT-29 cells assessed as late apoptotic cells at 10 uM incubated for 24 hrs by Annexin V FITC/PI staining based flow cytometry analysis ( Rvb = 0.7%); type: functional
[18] = system: HT-29; assay: Induction of apoptosis in human HT-29 cells assessed as necrotic cells at 10 uM incubated for 24 hrs by Annexin V FITC/PI staining based flow cytometry analysis ( Rvb = 0.2%); type: functional
[19] = system: U-937; assay: Induction of apoptosis in human U-937 cells assessed as viable cells at 1 uM incubated for 24 hrs by Annexin V FITC/PI staining based flow cytometry analysis ( Rvb = 95.2 +/- 0.4%); type: functional; settings: read-out: Activity
[20] = system: U-937; assay: Induction of apoptosis in human U-937 cells assessed as early apoptotic cells at 1 uM incubated for 24 hrs by Annexin V FITC/PI staining based flow cytometry analysis ( Rvb = 0.6 +/- 0.1 %); type: functional
[21] = system: U-937; assay: Induction of apoptosis in human U-937 cells assessed as late apoptotic cells at 1 uM incubated for 24 hrs by Annexin V FITC/PI staining based flow cytometry analysis ( Rvb = 4 +/- 0.2%); type: functional
[22] = system: U-937; assay: Induction of apoptosis in human U-937 cells assessed as necrotic cells at 1 uM incubated for 24 hrs by Annexin V FITC/PI staining based flow cytometry analysis ( Rvb = 0.2 +/- 0.1%); type: functional
[23] = system: U-937; assay: Induction of apoptosis in human U-937 cells assessed as viable cells at 5 uM incubated for 24 hrs by Annexin V FITC/PI staining based flow cytometry analysis ( Rvb = 95.2 +/- 0.4%); type: functional; settings: read-out: Activity
[24] = system: U-937; assay: Induction of apoptosis in human U-937 cells assessed as early apoptotic cells at 5 uM incubated for 24 hrs by Annexin V FITC/PI staining based flow cytometry analysis ( Rvb = 0.6 +/- 0.1 %); type: functional
[25] = system: U-937; assay: Induction of apoptosis in human U-937 cells assessed as late apoptotic cells at 5 uM incubated for 24 hrs by Annexin V FITC/PI staining based flow cytometry analysis ( Rvb = 4 +/- 0.2%); type: functional
[26] = system: U-937; assay: Induction of apoptosis in human U-937 cells assessed as necrotic cells at 5 uM incubated for 24 hrs by Annexin V FITC/PI staining based flow cytometry analysis ( Rvb = 0.2 +/- 0.1%); type: functional
[27] = system: U-937; assay: Induction of apoptosis in human U-937 cells assessed as viable cells at 10 uM incubated for 24 hrs by Annexin V FITC/PI staining based flow cytometry analysis ( Rvb = 95.2 +/- 0.4%); type: functional; settings: read-out: Activity
[28] = system: U-937; assay: Induction of apoptosis in human U-937 cells assessed as early apoptotic cells at 10 uM incubated for 24 hrs by Annexin V FITC/PI staining based flow cytometry analysis ( Rvb = 0.6 +/- 0.1 %); type: functional
[29] = system: U-937; assay: Induction of apoptosis in human U-937 cells assessed as late apoptotic cells at 10 uM incubated for 24 hrs by Annexin V FITC/PI staining based flow cytometry analysis ( Rvb = 4 +/- 0.2%); type: functional
[30] = system: U-937; assay: Induction of apoptosis in human U-937 cells assessed as necrotic cells at 10 uM incubated for 24 hrs by Annexin V FITC/PI staining based flow cytometry analysis( Rvb = 0.2 +/- 0.1%); type: functional
[31] = system: Mus musculus; assay: Antiinflammatory activity against DSS-induced chronic colitis in C57BL/6N/Crl mouse model assessed as recovery of body weight at 30 mg/kg, po administered daily 6 days per week for 5 weeks
[32] = system: Mus musculus; assay: Antiinflammatory activity against DSS-induced chronic colitis in C57BL/6N/Crl mouse model assessed as recovery of colon weight at 30 mg/kg, po administered daily 6 days per week for 5 weeks
[33] = system: Rattus norvegicus; assay: Antiinflammatory activity against TNBS-induced colitis in Sprague-Dawley rat model assessed as recovery of body weight at 300 mg/kg, po administered for 5 days; type: functional; settings: time 5 day
[34] = system: Rattus norvegicus; assay: Antiinflammatory activity against TNBS-induced colitis in Sprague-Dawley rat model assessed as recovery of colon weight at 300 mg/kg, po administered for 5 days; type: functional; settings: time 5 day
[35] = system: Mus musculus; assay: Antiinflammatory activity against DSS-induced chronic colitis in C57BL/6N/Crl mouse model assessed as recovery of body weight at 300 mg/kg, po administered daily 6 days per week for 5 weeks; type: functional
[36] = system: Mus musculus; assay: Antiinflammatory activity against DSS-induced chronic colitis in C57BL/6N/Crl mouse model assessed as recovery of colon weight at 300 mg/kg, po administered daily 6 days per week for 5 weeks; type: functional

Compound: Cc1nc(NC(=O)c2sc3ccccc3c2Cl)c(C)c(C)c1O
- inhibition at 1 µM [1]: 11.4%

Compound: COc1ccccc1C(=O)Nc1nc(C)c(O)c(C)c1C
- inhibition at 1 µM [2]: 58%
- inhibition at 1 µM [1]: 44%

Compound: Cc1nc(NC(=O)c2c(C)noc2C)c(C)c(C)c1O
- inhibition at 1 µM [2]: 85%
- inhibition at 1 µM [1]: 74%

Compound: Cc1nc(NC(=O)c2ccsc2)c(C)c(C)c1O
- inhibition at 1 µM [2]: 11.5%
- inhibition at 1 µM [1]: 19.3%

Compound: Cc1nc(NC(=O)c2cc3ccccc3s2)c(C)c(C)c1O
- inhibition at 1 µM [1]: 27%

Compound: Cc1ccc(C(=O)Nc2nc(C)c(O)c(C)c2C)cc1F
- inhibition at 1 µM [2]: 68.2%
- inhibition at 1 µM [1]: 59.5%

Compound: Cc1nc(NC(=O)c2ccc(-c3cc(Cl)ccc3Cl)o2)c(C)c(C)c1O
- inhibition at 1 µM [2]: 78.2%
- inhibition at 1 µM [1]: 69.6%

Compound: Cc1nc(NC(=O)c2ccccc2)c(C)c(C)c1O
- inhibition at 1 µM [1]: 44.1%

Compound: CC(=O)c1ccc2c(c1)[C@@H]1C=CC[C@@H]1[C@H](c1cc3c(cc1Br)OCO3)N2
- inhibition [3]: Active
- inhibition [4]: Active
- Activity [5]: Active
- Activity [6]: Active
- viability at 1 µM [7]: 80.9%
- Activity [8]: 1%
- Activity [9]: 16.9%
- Activity [10]: 1.3%
- viability at 5 µM [11]: 66.6%
- Activity [12]: 2.9%
- Activity [13]: 27.9%
- Activity [14]: 2.7%
- viability at 10 µM [15]: 61.4%
- Activity [16]: 4.3%
- Activity [17]: 33.3%
- Activity [18]: 1%
- viability at 1 µM [19]: 76.2%
- Activity [20]: 7%
- Activity [21]: 16.2%
- Activity [22]: 0.6%
- viability at 5 µM [23]: 66.6%
- Activity [24]: 5.5%
- Activity [25]: 28.2%
- Activity [26]: 0.3%
- viability at 10 µM [27]: 53.2%
- Activity [28]: 7.2%
- Activity [29]: 39.2%
- Activity [30]: 0.4%

Compound: Cc1cccc(C(=O)Nc2nc(C)c(O)c(C)c2C)c1
- inhibition at 1 µM [2]: 63.9%
- inhibition at 1 µM [1]: 48.9%

Compound: C[C@@H]1CCN(C(=O)CC#N)C[C@@H]1N(C)c1ncnc2[nH]ccc12 [TOFACITINIB]
- Activity [31]: 29.5%
- Activity [32]: 68.2%

Compound: O=C(O)c1cc(/N=N/c2ccc(S(=O)(=O)Nc3ccccn3)cc2)ccc1O [SULFASALAZINE]
- Activity [33]: 58.3%
- Activity [34]: 78.4%
- Activity [35]: 22.8%
- Activity [36]: 66.9%

Compound: COc1ccc(C(=O)Nc2nc(C)c(O)c(C)c2C)cc1
- inhibition at 1 µM [1]: 6.5%

Compound: Cc1nc(NC(=O)c2ccccc2Cl)c(C)c(C)c1O
- inhibition at 1 µM [2]: 7.9%
- inhibition at 1 µM [1]: 15%

Compound: Nc1ccc(O)c(C(=O)O)c1 [MESALAMINE]
- inhibition at 1 µM [2]: 9.9%
- inhibition at 1 µM [1]: 1.7%
